Measured values from paper PMC8301452, “Targeting of Protein Kinase CK2 in Acute Myeloid Leukemia Cells Using the Clinical-Grade Synthetic-Peptide CIGB-300” (Biomedicines, 2021).
Bridge positions count the residues as written; N and C are the ends. Square brackets hold non-standard residues; d marks the D form. Peptide text beside a SMILES is read from it. βAla = NCCC(=O)O

What was measured:
HL-60 cells [1] = assay: Cell cycle analysis by PI staining and flow cytometry; assay type: cell-based, Human; conditions: 40 µM, 24 h
Method: (§1) For cell cycle analysis, AML cells were incubated with 40 µM CIGB-300 during 24 h. Following treatment with the peptide, cells were collected by centrifugation, washed with PBS, and fixed at 4 °C for 30 min with ice-cold 70% ethanol. After fixation, cells were treated with DNase-free RNase A (Sigma, St. Louis, MO, USA) and subsequently stained at 37 °C for 20 min with 50 µg/mL PI solution (Sigma, St. Louis, MO, USA). Stained cells were analyzed in the abovementioned Partec CyFlow Space flow cytometry, and FlowJo Software (v7.6.1) was used for data processing and visualization.

OCI-AML3 cells = assay: as above; assay type: cell-based, Human; conditions: 40 µM, 24 h
Method: as §1

[2] = tested on: chronic and acute T-cell lymphocytic leukemia (CLL and T-ALL); conditions: read-out: IC50, estimated values; cited from earlier work
Method: In contrast with solid tumor cells, which display a heterogenous sensitivity profile, leukemia cells are more sensitive to CIGB-300 anti-proliferative effects. Indeed, in a panel containing human lung, cervix, prostate, and colon cancer cell lines, the IC50 values for CIGB-300 ranged between 20 and 300 µM [32], while in chronic and acute T-cell lymphocytic leukemia (CLL and T-ALL), the estimated values were all below 40 µM [34, 44].

[3] = tested on: HL-60 cells transduced with LV-pLG or LV-shRNA; assay: PI staining cytotoxicity in NPM1 knock-down cells; assay type: cell-based, Human; conditions: 20 or 40 µM, 5 h, n = 3
Method: Cells were infected with HIV-based third-generation lentiviral particles according to experimental conditions previously described. […]. After virus production and subsequent titration, cells were infected by spinoculation in the presence of polybrene (8 µg/mL) and at 10× multiplicity of infection. On the next day, fresh medium was added, and the cells were allowed to recover for another 48 h. Finally, infected cells were analyzed by flow cytometry and Western blot for evaluation of GFP expression and NPM1 protein levels, respectively.
Figure 4 Lentiviral vector-mediated knock-down of NPM1 in AML cells: (A) Flow cytometry analysis of GFP expression in transduced HL-60 cells at day 7 post-infection. Percentage of GFP+ cells was determined on live-cell population (R1 gate in dot plots); (B) Immunoblots from HL-60 transduced cells showing NPM1 protein knock-down in LV-shRNA infected cells. Densitometry analysis values of NPM1 bands were normalized to β-actin and then to untransduced cells; (C) GFP expression levels and (D) viability of transduced HL-60 cells were followed by flow cytometry during three weeks post-infection; (E) Sensibility of transduced cells toward the cytotoxic effect of CIGB-300 was evaluated by PI staining. Cells were incubated with 20 or 40 µM of CIGB-300 for 5 h, stained with PI solution, and then analyzed by flow cytometry. […]

[4] = tested on: primary cells from AML patients' bone marrow samples; assay: Annexin V/PI staining, flow cytometry; assay type: cell-based, Human; conditions: primary cells from the majority of AML patients' bone marrow samples; 40 µM, 48 h
Excerpt: Bone marrow samples from five AML patients with high leukemia involvement were collected in accordance with the Declaration of Helsinki after informed consent and ethical approval of the Clinical Research Board from the Center for Genetic Engineering and Biotechnology (CIGB, Havana, Cuba) (Table S1). Mononuclear cells from bone marrow samples were isolated using Ficoll-Paque (GE Healthcare, Chicago, IL, USA) density gradient centrifugation. Cells were maintained under standard cell culture conditions.
Viability of AML cells was measured using FITC Annexin V Apoptosis Detection Kit I (BD Biosciences, San Jose, CA, USA). Briefly, cell lines were incubated with 40 µM CIGB-300 for 3 and 5 h, while primary cells were incubated during 48 h. Following incubation, cells were washed twice with cold PBS and resuspended in binding buffer (1×) at a final concentration of 1 × 10^6 cells/mL. Subsequently, 5 µL of FITC Annexin V and PI were added, and cell suspensions were incubated for 15 min at room temperature in the dark. Flow cytometric analysis of stained cells was performed in Partec CyFlow Space instrument (Sysmex Partec GmbH, Gorlitz, Germany), and FlowJo software (v7.6.1) (BD, Ashland, OR, USA) was used for data analysis and visualization.

[5] = tested on: CK2 substrates in HL-60 cells; assay: Phosphoproteomic analysis; assay type: cell-based, Human; conditions: 40 µM, 30 min, three replicates
Method: (§2) Sample preparation, phosphopeptide enrichment, and nanoLC-MS/MS for phosphoproteomic analysis of AML cells treated or not with 40 µM CIGB-300 during 30 min were conducted as previously described. Briefly, three replicates from each condition were processed by multienzyme digestion filter-aided sample preparation (MED-FASP) with overnight lys-C and tryptic digestions and the phosphopeptides enriched by TiO2 chromatography. Phosphopeptides were later injected through an EASY-nLC 1200 system into a QExactive HF mass spectrometer (Thermo Scientific, USA) using a home-made column ([…], 20 cm length), and were separated with a gradient from 5% buffer B (0.1% formic acid in acetonitrile) up to 30% in 45 min, 30–60% in 5 min, and 60–95% in 5 min more.
(§3) Data processing and quantification were performed in MaxQuant software (v1.6.2.10) and Perseus computational platform (v1.6.2.2). Phosphopeptides dataset was filtered of reverse and potential contaminants hits, and only phosphosites with localization probability above 0.75 were retained for further analysis. Additionally, only those phosphopeptides represented in each group were considered, and differences in phosphosites occupancy higher than 25% were selected as significant changes. Enzyme–substrate relations were retrieved using post-translational modification resource iPTMnet and web-based tool KEA2 [48, 49]. In addition to well-documented substrates, we searched for candidate CK2 substrates based on the presence of the CK2 consensus sequence, the enzyme–substrate predictions retrieved from NetworKIN database, the dataset of high confidence CK2 substrates reported by Bian et al., and the phosphoproteins that interact with protein kinase CK2 according to the Metascape database.

[6] = tested on: CK2 substrates in OCI-AML3 cells; assay: Phosphoproteomic analysis; assay type: cell-based, Human; conditions: 40 µM, 30 min, three replicates
Method: as §2, §3

NPM1 S125 = assay: Western blot of CK2-mediated NPM1 phosphorylation; assay type: cell-based, Human; conditions: both AML cell lines (HL-60, OCI-AML3), 40 µM
Method: Cells were lysed in RIPA buffer containing protease/phosphatase inhibitor (Thermo Fisher Scientific, Waltham, MA, USA), and equal amounts of protein were resolved in 12.5% SDS-PAGE [46]. Next, proteins were transferred to a nitrocellulose membrane and immunoblotted with the following antibodies according to instructions from the manufacturer: NPM1, p-NPM1 (S125), and CK2α (Abcam, Cambridge, United Kingdom) and β-actin (Sigma, St. Louis, MO, USA). Detection was performed with peroxidase-conjugated anti-mouse or anti-rabbit IgG (Sigma, St. Louis, MO, USA), and signal was developed using SuperSignal West Pico Chemiluminescent Substrate (Thermo Fisher Scientific, Waltham, MA, USA).
Figure S2. CIGB-300 peptide impairs CK2-mediated phosphorylation of NPM1 in AML cells. Cells treated with
40 µM of CIGB-300 during the indicated times were analyzed by western blot using phospho-specific and total […]

CK2α catalytic subunit = molecular target: T1, CK2α catalytic subunit (Homo sapiens, UniProt P68400); assay: In vivo pull-down followed by immunodetection; assay type: binding; conditions: AML cells, immunoblot
T1 construct: endogenous in cells
Method: For in vivo pull-down assays, CIGB-300 with N-terminal biotin tag (CIGB-300-B) was added to AML cells at a final concentration of 40 µM and incubated for 30 min. Subsequently, cells were collected, washed, and lysed in hypotonic PBS solution (0.1×) containing 1 mM DTT (Sigma, St. Louis, MO, USA) and complete protease inhibitor (Roche, Basel, Switzerland) by eight freeze–thaw (liquid nitrogen/37 °C) cycles. Cellular lysates were cleared by centrifugation, and 300 µg of total protein was added to 30 µL of pre-equilibrated streptavidin–sepharose matrix (GE Healthcare, Chicago, IL, USA). Following 1 h at 4 °C, the matrix was collected by centrifugation and extensively washed with PBS solution (1×) containing 1 mM DTT. Proteins bound to streptavidin–sepharose matrix were digested with trypsin (Promega, Madison, WI, USA) during 16 h or eluted for western blot analysis. In parallel, untreated cells were subjected to the same experimental procedure to identify those proteins non-specifically bound to streptavidin–sepharose matrix.
Cells were lysed in RIPA buffer containing protease/phosphatase inhibitor (Thermo Fisher Scientific, Waltham, MA, USA), and equal amounts of protein were resolved in 12.5% SDS-PAGE [46]. […]

HL-60 cells [7] = tested on: HL-60 cells; design: method as in PMID 24283803, PMID 33562780; conditions: cited from earlier work

T1 sequence (P68400 whole entry): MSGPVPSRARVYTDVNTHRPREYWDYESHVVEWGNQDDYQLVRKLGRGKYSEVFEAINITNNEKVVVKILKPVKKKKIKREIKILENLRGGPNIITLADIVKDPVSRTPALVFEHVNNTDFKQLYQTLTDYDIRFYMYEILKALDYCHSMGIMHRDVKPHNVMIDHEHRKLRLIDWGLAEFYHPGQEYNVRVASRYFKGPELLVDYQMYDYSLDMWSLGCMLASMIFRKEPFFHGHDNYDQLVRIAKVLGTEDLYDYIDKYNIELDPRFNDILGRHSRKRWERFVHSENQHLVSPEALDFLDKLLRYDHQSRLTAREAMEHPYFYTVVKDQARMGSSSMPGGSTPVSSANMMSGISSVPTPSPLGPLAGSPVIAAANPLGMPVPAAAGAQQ

SMILES: CSCC[C@@H]1NC(=O)[C@H](Cc2c[nH]c3ccccc23)NC(=O)[C@@H](NC(=O)CCNC(=O)[C@H](CCC(N)=O)NC(=O)[C@@H]2CCCN2C(=O)[C@@H]2CCCN2C(=O)[C@H](CCCNC(=N)N)NC(=O)[C@H](CCCNC(=N)N)NC(=O)[C@H](CCCNC(=N)N)NC(=O)[C@H](CCC(N)=O)NC(=O)[C@H](CCCNC(=N)N)NC(=O)[C@H](CCCNC(=N)N)NC(=O)[C@H](CCCCN)NC(=O)[C@H](CCCCN)NC(=O)[C@H](CCCNC(=N)N)NC(=O)CN)CSSC[C@@H](C(=O)O)NC(=O)[C@H]([C@@H](C)O)NC(=O)CNC(=O)[C@H](CC(C)C)NC(=O)[C@H](Cc2c[nH]cn2)NC(=O)[C@H](CCCNC(=N)N)NC(=O)[C@@H]2CCCN2C(=O)[C@H](CO)NC1=O [CIGB-300] (H-GRKKRRQRRRPPQ[βAla]CWMSPRHLGTC-OH; disulfide 15-25; N-terminus and C-terminus assumed)
- effect on cell cycle progression (HL-60 cells [1]): accumulation of HL-60 cells in S phase
- effect on cell cycle progression (OCI-AML3 cells): no change in cell cycle distribution
- IC50 [2]: < 40 µM
- sensibility toward cytotoxic effect, LV-shRNA (NPM1 knock-down roughly 85%) vs LV-pLG [3]: no differential sensibility
- effect on viability (Annexin V-FITC/PI) [4]: promoted apoptosis
- Occupancy Treated–Control, ABCF1 S140 (Q8NE71) [5]: −0.2693 ^2
- Occupancy Treated–Control, AP3B1 S276 (O00203) [5]: −0.427
- Occupancy Treated–Control, BCLAF1 S397 (Q9NYF8) [5]: −0.2902 ^1
- Occupancy Treated–Control, C1orf52 S158 (Q8N6N3) [5]: −0.3645
- Occupancy Treated–Control, DDX24 S82 (Q9GZR7) [5]: −0.3284
- Occupancy Treated–Control, DKC1 S485 (O60832) [5]: −0.3777
- Occupancy Treated–Control, DKC1 S494 (O60832) [5]: −0.3312 ^1
- Occupancy Treated–Control, EIF3C S39 (Q99613) [5]: −0.2738 ^2
- Occupancy Treated–Control, EIF4G1 S1198 (Q04637) [5]: −0.276
- Occupancy Treated–Control, FKBP15 S346 (Q5T1M5) [5]: −0.25
- Occupancy Treated–Control, HIRIP3 S196 (Q9BW71) [5]: −0.2842
- Occupancy Treated–Control, HIRIP3 S199 (Q9BW71) [5]: −0.2649
- Occupancy Treated–Control, HMGA1 S44 (P17096) [5]: −0.3177
- Occupancy Treated–Control, LEMD3 S144 (Q9Y2U8) [5]: −0.3252
- Occupancy Treated–Control, LYN S13 (P07948) [5]: −0.3987
- Occupancy Treated–Control, M6PR S267 (P20645) [5]: −0.26
- Occupancy Treated–Control, MCM2 S41 (P49736) [5]: −0.421 ^2
- Occupancy Treated–Control, NAP1L4 S125 (Q99733) [5]: −0.3398
- Occupancy Treated–Control, PABPC1 T319 (P11940) [5]: −0.2931
- Occupancy Treated–Control, PAK2 T169 (Q13177) [5]: −0.2963
- Occupancy Treated–Control, PNN S381 (Q9H307) [5]: −0.2998
- Occupancy Treated–Control, SEPTIN2 S218 (Q15019) [5]: −0.2677 ^1, 2
- Occupancy Treated–Control, SRSF11 S464 (Q05519) [5]: −0.3301
- Occupancy Treated–Control, ST13 S75 (P50502) [5]: −0.2852
- Occupancy Treated–Control, STMN1 S63 (P16949) [5]: −0.3357 ^2
- Occupancy Treated–Control, THRAP3 S211 (Q9Y2W1) [5]: −0.2914
- Occupancy Treated–Control, TMPO S66 (P42166) [5]: −0.4836
- Occupancy Treated–Control, TMPO S67 (P42166) [5]: −0.4836
- Occupancy Treated–Control, TOP2A S1106 (P11388) [5]: −0.2854
- Occupancy Treated–Control, XRCC6 S520 (P12956) [5]: −0.3763
- Occupancy Treated–Control, BCLAF1 S397 (Q9NYF8) [6]: −0.3056 ^1
- Occupancy Treated–Control, BRCA1 S1164 (P38398) [6]: −0.3932
- Occupancy Treated–Control, CEP170 S1112 (Q5SW79) [6]: −0.4366
- Occupancy Treated–Control, DKC1 S494 (O60832) [6]: −0.2948 ^1
- Occupancy Treated–Control, EIF5B S214 (O60841) [6]: −0.2868
- Occupancy Treated–Control, HNRNPC S220 (P07910) [6]: −0.4698
- Occupancy Treated–Control, HNRNPC S225 (P07910) [6]: −0.4597
- Occupancy Treated–Control, MCM2 S13 (P49736) [6]: −0.4061 ^2
- Occupancy Treated–Control, MCM2 S139 (P49736) [6]: −0.3422 ^2
- Occupancy Treated–Control, NAP1L4 S7 (Q99733) [6]: −0.2719
- Occupancy Treated–Control, NOP56 S520 (O00567) [6]: −0.3705
- Occupancy Treated–Control, SEPTIN2 S218 (Q15019) [6]: −0.4261 ^1, 2
- Occupancy Treated–Control, SRSF11 S433 (Q05519) [6]: −0.3794
- Occupancy Treated–Control, STT3B S499 (Q8TCJ2) [6]: −0.3445
- Occupancy Treated–Control, TOP2A S1247 (P11388) [6]: −0.3351
- Occupancy Treated–Control, TOP2B S1550 (Q02880) [6]: −0.2936
- CK2-mediated phosphorylation at S125 residue of NPM1 (NPM1 S125): inhibition of CK2-mediated phosphorylation
- interaction with CK2α subunit (CK2α catalytic subunit): clear interaction

SMILES: O=C(O)c1ccc2c(c1)nc(Nc1cccc(Cl)c1)c1ccncc12 [CX-4945]
- response toward cytotoxic effect (HL-60 cells [7]): refractoriness
